Test results as given in patent US20060135569A1, “Use of benzisoselenazolone compounds against ischemic myocardial damage” (priority 2002, published 2006).
Marks after values point to notes of the source that are not given here.

Key:
[1] = tested on: TA100; assay: Ames test, strain TA100; assay type: cell-based
Protocol: (§1) To assess the mutagenic effects of 5 compounds (IMM-004; IMM-065; IMM-127; IMM-128; IMM-313), the Ames test was performed in 4 strains (TA97; TA98; TA100; TA102). The experiment was conducted with compounds at 4 concentration levels (0.5, 5, 50 and 500 μg/dish). […]

[2] = tested on: arrhythmia caused by ischemia/reperfusion insults in anaesthetic rats; assay: Ischemia/reperfusion arrhythmia in anaesthetic rats, intravenous injection; assay type: in vivo, rat; conditions: for incidence and duration of VT, VF, VE / ventricular arrhythmic / latency of ventricular arrhythmic: 3 mg/Kg intravenous (femoral vein), rats; for Occurrence time / VE Duration time / VE Incidence (%) / VF Duration time / VF Incidence (%) / VT Duration time / VT Incidence (%): intravenously injected per table title
Text: (1) Protective Effects of the Tested Compounds on Myocardial Insults in Rats after Intravenously Injection
Arrhythmic potency induced by myocardial insults was used to assess the potential protective effect of the compounds.

[3] = tested on: TA98; assay: Ames test, strain TA98; assay type: cell-based
Protocol: as §1

[4] = molecular target: T1, Na^+/Ca^2+ exchanger (Cavia porcellus, UniProt P48766); assay: Na^+/Ca^2+ exchange current (INa—Ca), whole-cell patch clamp, intracellular Na^+ overload cell model; assay type: cell-based, guinea pig
T1 construct: endogenous in cells; host or cells: freshly isolated guinea pig ventricular myocytes
Method in brief: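 Whole-cell patch clamp on guinea pig ventricular myocytes, Na⁺-loaded via pipette dialysis; holding −40 mV, step to +60 mV, ramp down at 80 mV·s⁻¹ to −100 mV, 0.05 Hz. K⁺, L-type Ca²⁺ and Na⁺/K⁺-ATPase blocked; INa–Ca taken as 5 mmol·L⁻¹ Ni²⁺-sensitive current.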

[5] = Acute toxicity study in mice; assay type: in vivo; conditions: male, KM, mouse, in vivo; oral, mice; read-out: LD50 (50% lethal dose)
Protocol: Acute toxicity studies were performed with IMM-004 and IMM-127 (synthesized by ourselves). The compound was provided as powder, which was milled and suspended in 0.5% carboxymethylcellulose sodium (CMC—Na) before use.
Male KM mice weighting 19±2 g were housed for an adaptation before use. Mice were randomly divided into groups, and each group consists of 10 animals. Mice were all fasted for 14 hrs before the administration of the tested compounds. Activity of mice in high dose group was reduced 30 min after the administration. 24 h after the administration, mice in each group were restored to normal. Mice were observed daily for a period of 7 days after the administration.

[6] = Example 1 table, myocardial cell
[7] = screening of 22 candidate compounds

O=c1c2cc(F)ccc2[se]n1-c1ccccn1 [IMM-127, 5-fluoro-2-(2-pyridyl)-1,2-benz-isoselenazol-3(2H)-one]
TA100 +S9 ([1]; 0.5 μg/dish): 95.00 ± 10.23
TA100 −S9 ([1]; 0.5 μg/dish): 83.00 ± 14.14
TA100 +S9 ([1]; 5 μg/dish): 102.67 ± 21.06
TA100 −S9 ([1]; 5 μg/dish): 62.00 ± 10.80
TA100 +S9 ([1]; 50 μg/dish): 100.00 ± 6.16
TA100 −S9 ([1]; 50 μg/dish): 67.67 ± 22.05
TA100 +S9 ([1]; 500 μg/dish): 100.67 ± 4.49
TA100 −S9 ([1]; 500 μg/dish): 72.33 ± 23.67
incidence and duration of VT, VF, VE / ventricular arrhythmic [2]: all reduced
latency of ventricular arrhythmic [2]: significantly prolonged
Occurrence time ([2]; 10 mg/Kg): 15.5 ± 21.5 s
VE Duration time ([2]; 10 mg/Kg): 2.5 ± 6.4 s
VE Incidence (%) ([2]; 10 mg/Kg): 100%
VF Duration time ([2]; 10 mg/Kg): 6.6 ± 7.2 s
VF Incidence (%) ([2]; 10 mg/Kg): 22.2%
VT Duration time ([2]; 10 mg/Kg): 32.1 ± 26.1 s
VT Incidence (%) ([2]; 10 mg/Kg): 66.7%
Occurrence time ([2]; 30 mg/Kg): 9.6 ± 9.2 s
VE Duration time ([2]; 30 mg/Kg): 0.2 ± 0.5 s
VE Incidence (%) ([2]; 30 mg/Kg): 100%
VF Duration time ([2]; 30 mg/Kg): 3.2 ± 5.5 s
VF Incidence (%) ([2]; 30 mg/Kg): 11.1* %
VT Duration time ([2]; 30 mg/Kg): 18.0 ± 11.4 s
VT Incidence (%) ([2]; 30 mg/Kg): 66.7%
Occurrence time ([2]; 100 mg/Kg): 9.0 ± 19.7 s
VE Duration time ([2]; 100 mg/Kg): 2.2 ± 63 s
VE Incidence (%) ([2]; 100 mg/Kg): 88.9%
VF Duration time ([2]; 100 mg/Kg): 5.1 ± 7.8 s
VF Incidence (%) ([2]; 100 mg/Kg): 22.2%
VT Duration time ([2]; 100 mg/Kg): 31.1 ± 21.3 s
VT Incidence (%) ([2]; 100 mg/Kg): 44.4** %
TA98 +S9 ([3]; 0.5 μg/dish): 73.67 ± 4.63
TA98 −S9 ([3]; 0.5 μg/dish): 93.50 ± 10.50
TA98 +S9 ([3]; 5 μg/dish): 53.00 ± 5.72
TA98 −S9 ([3]; 5 μg/dish): 85.00 ± 5.00
TA98 +S9 ([3]; 50 μg/dish): 42.33 ± 7.41
TA98 −S9 ([3]; 50 μg/dish): 89.00 ± 10.61
TA98 +S9 ([3]; 500 μg/dish): 42.67 ± 5.31
TA98 −S9 ([3]; 500 μg/dish): 96.00 ± 4.90
Inhibitory rate of inward INa—Ca (%) [4, 6]: 21%
Inhibitory rate of outward INa—Ca (%) [4, 6]: 43%
Inhibitory rate of inward INa—Ca (%) [4, 7]: 21%
Inhibitory rate of outward INa—Ca (%) [4, 7]: 43* %

O=c1c2cc(Cl)ccc2[se]n1-c1ccccn1 [IMM-004, 5-chloro-2-(2-pyridyl)-1,2-benz-isoselenazol-3(2H)-one]
LD50 at 7 days [5]: > 5000 mg/kg
TA100 +S9 ([1]; 0.5 μg/dish): 191.33 ± 44.25
TA100 −S9 ([1]; 0.5 μg/dish): 121.00 ± 8.52
TA100 +S9 ([1]; 5 μg/dish): 215.33 ± 23.68
TA100 −S9 ([1]; 5 μg/dish): 58.33 ± 29.39
TA100 +S9 ([1]; 50 μg/dish): 126.00 ± 31.79
TA100 −S9 ([1]; 50 μg/dish): 89.67 ± 14.70
TA100 +S9 ([1]; 500 μg/dish): 160.00 ± 21.33
TA100 −S9 ([1]; 500 μg/dish): 78.33 ± 13.52
incidence and duration of VT, VF, VE / ventricular arrhythmic [2]: all reduced
latency of ventricular arrhythmic [2]: significantly prolonged
Occurrence time ([2]; 10 mg/Kg): 9.3 ± 10.0 s
VE Duration time ([2]; 10 mg/Kg): 4.7 ± 12.9 s
VE Incidence (%) ([2]; 10 mg/Kg): 100%
VF Duration time ([2]; 10 mg/Kg): 8.8 ± 7.4 s
VF Incidence (%) ([2]; 10 mg/Kg): 22.2%
VT Duration time ([2]; 10 mg/Kg): 30.2 ± 17.6 s
VT Incidence (%) ([2]; 10 mg/Kg): 88.9%
Occurrence time ([2]; 30 mg/Kg): 19.6 ± 24.1 s
VE Duration time ([2]; 30 mg/Kg): 0.4 ± 1.3 s
VE Incidence (%) ([2]; 30 mg/Kg): 66.7%
VF Duration time ([2]; 30 mg/Kg): 3.3 ± 5.7 s
VF Incidence (%) ([2]; 30 mg/Kg): 11.1* %
VT Duration time ([2]; 30 mg/Kg): 17.0 ± 12.6 s
VT Incidence (%) ([2]; 30 mg/Kg): 44.4** %
Occurrence time ([2]; 100 mg/Kg): 16.4 ± 25.1 s
VE Duration time ([2]; 100 mg/Kg): 5.5 ± 10.2 s
VE Incidence (%) ([2]; 100 mg/Kg): 66.7%
VF Duration time ([2]; 100 mg/Kg): 3.9 ± 6.8 s
VF Incidence (%) ([2]; 100 mg/Kg): 33.3%
VT Duration time ([2]; 100 mg/Kg): 22.7 ± 19.4 s
VT Incidence (%) ([2]; 100 mg/Kg): 55.5* %
TA98 +S9 ([3]; 0.5 μg/dish): 70.67 ± 6.85
TA98 −S9 ([3]; 0.5 μg/dish): 56.33 ± 1.25
TA98 +S9 ([3]; 5 μg/dish): 48.33 ± 11.95
TA98 −S9 ([3]; 5 μg/dish): 29.33 ± 0.94
TA98 +S9 ([3]; 50 μg/dish): 60.67 ± 26.64
TA98 −S9 ([3]; 50 μg/dish): 19.67 ± 3.29
TA98 +S9 ([3]; 500 μg/dish): 55.33 ± 15.92
TA98 −S9 ([3]; 500 μg/dish): 24.67 ± 4.71
Inhibitory rate of inward INa—Ca (%) [4, 6]: 44%
Inhibitory rate of outward INa—Ca (%) [4, 6]: 52%
Inhibitory rate of inward INa—Ca (%) [4, 7]: 44%
Inhibitory rate of outward INa—Ca (%) [4, 7]: 52* %
